Earlier results in patent US6211152A, “Formulations for peptide release” (Peptech Limited, priority 1995, dated 2001).

Columns and labels:
dogs/bitches = conditions: overdosing dogs/bitches
prostate cancer in rats = conditions: microencapsulated form, controlled dose over 30 days, vs daily subcutaneous equivalent or double doses of free peptide

In the case of `CC(C)C[C@H](NC(=O)[C@@H](Cc1ccc2ccccc2c1)NC(=O)[C@H](Cc1ccc(O)cc1)NC(=O)[C@H](CO)NC(=O)[C@H](Cc1c[nH]c2ccccc12)NC(=O)[C@H](Cc1c[nH]cn1)NC(=O)[C@@H]1CCC(=O)N1)C(=O)N[C@@H](CCCNC(=N)N)C(=O)N1CCC[C@H]1C(=O)NCC(N)=O` [nafarelin], the “period of shut down of reproductive function” value (dogs/bitches) is listed as “three to eighteen”.
In the case of [D Trp^6 ] LH-RH, the “suppressing serum testosterone levels and prostate tumour weight” value (prostate cancer in rats) is listed as “more effective”.
